What was measured:
[1] = In vitro drug release from silicone tube devices loaded with solid lidocaine tablets (diffusion through the wall of the drug reservoir); type: physicochemical; details: silicone tube ID about 0.060 in, OD 0.076 in, length about 3 cm, payload about 60 mg, no aperture; in vitro in water at about 37° C.
Method: A study was performed to determine the feasibility of delivering drug through the wall of a drug reservoir via diffusion. Devices were formed form silicone tubes having an inner diameter of about 0.060 inches, an outer diameter of 0.076 inches, and a length of about 3 cm. The devices were loaded with solid drug tablets of lidocaine, for a total payload of about 60 mg. Some of the devices included an aperture formed through the tube wall, the aperture having a diameter of 150 μm. These devices were loaded with solid tablets of either lidocaine hydrochloride monohydrate or a combination of lidocaine hydrochloride monohydrate and lidocaine base. […] The devices were tested in vitro in water at about 37° C.

[2] = In vitro drug release from silicone tube devices loaded with lidocaine base tablets, with varying numbers of apertures; type: physicochemical; details: silicone tubes about 3 cm, payload about 60 mg, in vitro in water at about 37° C.
Method: Another study was performed to investigate the feasibility of delivering drug from a device through both a wall of a drug reservoir and from an aperture in the wall of the drug reservoir. Devices were formed form silicone tubes having a length of about 3 cm. The devices were loaded with solid drug tablets of lidocaine base, for a total payload of about 60 mg. […] The devices were tested in vitro in water at about 37° C.

## CCN(CC)CC(=O)Nc1c(C)cccc1C [lidocaine base, lidocaine]
[1]
  delivery of drug via diffusion through the silicone wall of the drug reservoir: feasible to deliver drug via diffusion through a silicone wall without an aperture
[2]; no apertures (ID 0.060/OD 0.076 in and ID 0.062/OD 0.095 in)
  release from silicone tube without apertures: can be released from a silicone tube without any apertures
[2]; 0, 1 (150 μm), 2, 30 or 60 (360 μm) apertures
  effect of apertures on release rate: release rate can be increased by adding apertures to the device

Source: US12403086B2, “Solid drug tablets for implantable drug delivery devices” (TARIS Biomedical LLC, priority 2009, dated 2025)
